According to US20060069132A1, “Azolecarboxamide herbicides” (priority 2004, published 2006):
Read-outs that look alike come from different tables or passages of the source.

Legend:
[1] = test system: velvetleaf; test: Test C pre-/postemergence herbicide test; type: in vivo, Abutilon theophrasti; details: for Velvetleaf plant response rating: 500 g ai/ha
Method in brief: (§1)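 Seeds were planted and sprayed preemergence with test chemicals in a non-phytotoxic solvent mixture containing surfactant; postemergence treatments went onto plants 2 to 18 cm tall (1- to 4-leaf stage). After 12 to 14 days in a greenhouse, injury was rated visually against untreated controls on a 0–100 scale.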

[2] = test system: redroot pigweed; test: Test A pre-/postemergence herbicide test; type: in vivo, Amaranthus retroflexus; details: for pest or weed control at 500 g/ha / pest or weed control at 2000 g/ha: Amaranthus retroflexus, 240 h; for pest or weed control at 500 g/ha: 500 g ai/ha; for pest or weed control at 2000 g/ha: 2000 g ai/ha
Method in brief: (§2)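 Seeds sown in sandy loam received a preemergence directed soil spray of compound in non-phytotoxic solvent with surfactant; postemergence plants (2–10 cm, one- to two-leaf stage) were sprayed to runoff at the same time. After ~10 days in greenhouse, injury was rated visually versus untreated controls (0 = no effect, 100 = complete control).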

[3] = test system: pigweed; test: Test C pre-/postemergence herbicide test; type: in vivo, Amaranthus retroflexus; details: for Pigweed plant response rating: 500 g ai/ha
Method in brief: as §1

[4] = test system: cocklebur; test: Test C pre-/postemergence herbicide test; type: in vivo, Xanthium strumarium
Method in brief: as §1

[5] = test system: barnyardgrass; test: Test A pre-/postemergence herbicide test; type: in vivo, Echinochloa crus-galli; details: for pest or weed control at 500 g/ha / pest or weed control at 2000 g/ha: Echinochloa crus-galli, 240 h; for pest or weed control at 500 g/ha: 500 g ai/ha; for pest or weed control at 2000 g/ha: 2000 g ai/ha
Method in brief: as §2

[6] = test system: johnsongrass; test: Test C pre-/postemergence herbicide test; type: in vivo, Sorghum halepense; details: for Johnsongrass plant response rating: 500 g ai/ha
Method in brief: as §1

[7] = test system: corn; test: Test C pre-/postemergence herbicide test; type: in vivo, Zea mays
Method in brief: as §1

[8] = 250 g ai/ha, scale 0 to 100 (0 no effect, 100 complete control), visual, 12 to 14 days, preemergence
[9] = Postemergence, 250 g ai/ha, scale 0 to 100, 0 no effect, 100 complete control
[10] = Preemergence, scale 0 to 100, 0 no effect, 100 complete control
[11] = postemergence, 125 g ai/ha, scale 0 to 100
[12] = postemergence, 62 g ai/ha, scale 0 to 100
[13] = Postemergence, 250 g ai/ha, 0 to 100 scale, 0 no effect, 100 complete control
[14] = Postemergence, 1000 g ai/ha, 0 to 100 scale, 0 no effect, 100 complete control
[15] = Preemergence, 1000 g ai/ha, visual rating, 0 to 100 scale (0 no effect, 100 complete control)
[16] = preemergence, 250 g ai/ha, visual injury, 0 to 100 scale (0 no effect, 100 complete control)
[17] = 125 g ai/ha, scale 0-100, preemergence
[18] = Postemergence, 500 g ai/ha, scale 0 to 100
[19] = Postemergence, 125 g ai/ha, scale 0 to 100, 0 no effect, 100 complete control
[20] = post-emergence, Postemergence, 0 to 100 scale, 0 no effect, 100 complete control, read-out: Plant response rating, Pigweed
[21] = post-emergence, Postemergence, 0 to 100 scale, 0 no effect, 100 complete control, read-out: Plant response rating, Barnyardgrass

CCNC(=O)c1cccc(NC(=O)c2cc(C(C)(C)C)nn2CC(F)(F)F)c1 [Compound 31]
Plant response rating (0 = no effect, 100 = complete control), Velvetleaf ([1]; 62 g ai/ha, preemergence): 20 | Plant response rating, Velvetleaf [1, 8]: 100 | Velvetleaf plant response rating ([1]; Postemergence, scale 0 to 100): 70 | Plant response rating, Velvetleaf [1, 9]: 70 | Velvetleaf plant response rating [1, 10]: 100 | Plant response rating, Velvetleaf [1, 11]: 60 | Plant response rating, Velvetleaf [1, 12]: 50 | Pigweed plant response rating [2, 13]: 55 | Plant response rating, Pigweed [2, 14]: 80 | Pigweed plant response rating [2, 15]: 80 | Pigweed plant response rating [2, 16]: 45 | Plant response rating (0 = no effect, 100 = complete control), Pigweed ([3]; 62 g ai/ha, preemergence): 100 | Plant response rating, Pigweed [3, 8]: 100 | Pigweed plant response rating ([3]; Postemergence, scale 0 to 100): 100 | Plant response rating, Pigweed [3, 9]: 100 | Pigweed plant response rating [3, 10]: 100 | Plant response rating, Pigweed [3, 11]: 90 | Plant response rating, Pigweed [3, 12]: 90 | Plant response rating (0 = no effect, 100 = complete control), Cocklebur ([4]; 62 g ai/ha, preemergence): 0 | Plant response rating, Cocklebur [4, 17]: 20 | Plant response rating, Cocklebur [4, 8]: 40 | Cocklebur plant response rating [4, 18]: 60 | Plant response rating, Cocklebur [4, 19]: 40 | Plant response rating, Cocklebur [4, 9]: 40 | Plant response rating, Cocklebur [4, 12]: 40 | Barnyardgrass plant response rating [5, 13]: 65 | Plant response rating, Barnyardgrass [5, 14]: 75 | Barnyardgrass plant response rating [5, 15]: 80 | Barnyardgrass plant response rating [5, 16]: 40 | Plant response rating (0 = no effect, 100 = complete control), Johnsongrass ([6]; 62 g ai/ha, preemergence): 0 | Plant response rating, Johnsongrass [6, 17]: 30 | Plant response rating, Johnsongrass [6, 8]: 70 | Johnsongrass plant response rating ([6]; Postemergence, scale 0 to 100): 30 | Plant response rating, Johnsongrass [6, 19]: 20 | Plant response rating, Johnsongrass [6, 9]: 30 | Johnsongrass plant response rating [6, 10]: 90 | Plant response rating, Johnsongrass [6, 12]: 20 | Plant response rating (0 = no effect, 100 = complete control), Corn ([7]; 62 g ai/ha, preemergence): 0 | Plant response rating, Corn [7, 17]: 20 | Corn plant response rating [7, 18]: 50 | Plant response rating, Corn [7, 19]: 40 | Plant response rating, Corn [7, 9]: 40 | Plant response rating, Corn [7, 12]: 40

CCOC(=O)c1cccc(NC(=O)c2cc(C(C)(C)C)nn2CC)c1 [Compound 80, ethyl 3-[[[3-(1,1-dimethylethyl)-1-ethyl-1H-pyrazol-5-yl]carbonyl]-amino]benzoate]
pest or weed control at 250 g/ha ([1]; Abutilon theophrasti, post-emergence, Postemergence, 250 g ai/ha, scale 0 to 100, 0 no effect, 100 complete control, read-out: Plant response rating, Velvetleaf): 100% | pest or weed control at 125 g/ha ([1]; Abutilon theophrasti, post-emergence, postemergence, 125 g ai/ha, scale 0 to 100, read-out: Plant response rating, Velvetleaf): 100% | pest or weed control at 62 g/ha ([1]; Abutilon theophrasti, post-emergence, postemergence, 62 g ai/ha, scale 0 to 100, read-out: Plant response rating, Velvetleaf): 100% | pest or weed control at 31 g/ha ([1]; Abutilon theophrasti, pre-emergence, 31 g ai/ha, preemergence, scale 0 to 100, read-out: Plant response rating, Velvetleaf): 20% | pest or weed control at 125 g/ha ([1]; Abutilon theophrasti, pre-emergence, 125 g ai/ha, scale 0 (no effect) to 100 (complete control), visual, 12 to 14 days, read-out: Plant response rating, Velvetleaf): 100% | pest or weed control at 500 g/ha [2, 20]: 100% | pest or weed control at 2000 g/ha [2, 20]: 100% | pest or weed control at 500 g/ha ([2]; pre-emergence, Preemergence, visual rating, 0 to 100 scale (0 no effect, 100 complete control), read-out: Pigweed plant response rating): 70% | pest or weed control at 2000 g/ha ([2]; pre-emergence, Preemergence, 0 to 100 scale, 0 no effect, 100 complete control, read-out: Pigweed plant response rating): 90% | Plant response rating (0 = no effect, 100 = complete control), Pigweed ([3]; 62 g ai/ha, preemergence): 40 | pest or weed control at 250 g/ha ([3]; Amaranthus retroflexus, post-emergence, Postemergence, 250 g ai/ha, scale 0 to 100, 0 no effect, 100 complete control, read-out: Plant response rating, Pigweed): 100% | pest or weed control at 125 g/ha ([3]; Amaranthus retroflexus, post-emergence, postemergence, 125 g ai/ha, scale 0 to 100, read-out: Plant response rating, Pigweed): 100% | pest or weed control at 62 g/ha ([3]; Amaranthus retroflexus, post-emergence, postemergence, 62 g ai/ha, scale 0 to 100, read-out: Plant response rating, Pigweed): 100% | pest or weed control at 31 g/ha ([3]; Amaranthus retroflexus, pre-emergence, 31 g ai/ha, preemergence, scale 0 to 100, read-out: Plant response rating, Pigweed): 30% | pest or weed control at 125 g/ha ([3]; Amaranthus retroflexus, pre-emergence, 125 g ai/ha, scale 0 (no effect) to 100 (complete control), visual, 12 to 14 days, read-out: Plant response rating, Pigweed): 100% | Plant response rating (0 = no effect, 100 = complete control), Cocklebur ([4]; 62 g ai/ha, preemergence): 0 | pest or weed control at 250 g/ha ([4]; Xanthium strumarium, post-emergence, 312 h, Postemergence, 250 g ai/ha, scale 0 to 100, 0 no effect, 100 complete control, read-out: Plant response rating, Cocklebur): 100% | pest or weed control at 125 g/ha ([4]; Xanthium strumarium, post-emergence, 312 h, postemergence, 125 g ai/ha, scale 0 to 100, read-out: Plant response rating, Cocklebur): 90% | pest or weed control at 31 g/ha ([4]; Xanthium strumarium, post-emergence, 312 h, postemergence, 31 g ai/ha, scale 0 to 100, read-out: Plant response rating, Cocklebur): 70% | pest or weed control at 62 g/ha ([4]; Xanthium strumarium, post-emergence, 312 h, postemergence, 62 g ai/ha, scale 0 to 100, read-out: Plant response rating, Cocklebur): 90% | pest or weed control at 125 g/ha ([4]; Xanthium strumarium, pre-emergence, 312 h, 125 g ai/ha, scale 0 (no effect) to 100 (complete control), visual, 12 to 14 days, read-out: Plant response rating, Cocklebur): 10% | pest or weed control at 250 g/ha ([4]; Xanthium strumarium, pre-emergence, 312 h, 250 g ai/ha, scale 0 to 100 (0 no effect, 100 complete control), visual, 12 to 14 days, read-out: Plant response rating, Cocklebur): 10% | pest or weed control at 500 g/ha [5, 21]: 90% | pest or weed control at 2000 g/ha [5, 21]: 90% | pest or weed control at 500 g/ha ([5]; pre-emergence, Preemergence, visual rating, 0 to 100 scale (0 no effect, 100 complete control), read-out: Barnyardgrass plant response rating): 10% | pest or weed control at 2000 g/ha ([5]; pre-emergence, Preemergence, 0 to 100 scale, 0 no effect, 100 complete control, read-out: Barnyardgrass plant response rating): 35% | Plant response rating (0 = no effect, 100 = complete control), Johnsongrass ([6]; 62 g ai/ha, preemergence): 10 | pest or weed control at 250 g/ha ([6]; Sorghum halepense, post-emergence, Postemergence, 250 g ai/ha, scale 0 to 100, 0 no effect, 100 complete control, read-out: Plant response rating, Johnsongrass): 90% | pest or weed control at 125 g/ha ([6]; Sorghum halepense, post-emergence, postemergence, 125 g ai/ha, scale 0 to 100, read-out: Plant response rating, Johnsongrass): 90% | pest or weed control at 62 g/ha ([6]; Sorghum halepense, post-emergence, postemergence, 62 g ai/ha, scale 0 to 100, read-out: Plant response rating, Johnsongrass): 80% | pest or weed control at 31 g/ha ([6]; Sorghum halepense, pre-emergence, 31 g ai/ha, preemergence, scale 0 to 100, read-out: Plant response rating, Johnsongrass): 0% | pest or weed control at 125 g/ha ([6]; Sorghum halepense, pre-emergence, 125 g ai/ha, scale 0 (no effect) to 100 (complete control), visual, 12 to 14 days, read-out: Plant response rating, Johnsongrass): 10% | Plant response rating (0 = no effect, 100 = complete control), Corn ([7]; 62 g ai/ha, preemergence): 0 | Corn plant response rating (crop injury, 0 = no effect, 100 = complete kill) at 250 g/ha ([7]; Zea mays, post-emergence, 312 h, Postemergence, 250 g ai/ha, scale 0 to 100, 0 no effect, 100 complete control): 70% | Corn plant response rating (crop injury, 0 = no effect, 100 = complete kill) at 125 g/ha ([7]; Zea mays, post-emergence, 312 h, postemergence, 125 g ai/ha, scale 0 to 100): 70% | Corn plant response rating (crop injury, 0 = no effect, 100 = complete kill) at 62 g/ha ([7]; Zea mays, post-emergence, 312 h, postemergence, 62 g ai/ha, scale 0 to 100): 70% | Corn plant response rating (crop injury, 0 = no effect, 100 = complete kill) at 31 g/ha ([7]; Zea mays, pre-emergence, 312 h, 31 g ai/ha, preemergence, scale 0 to 100): 0% | Corn plant response rating (crop injury, 0 = no effect, 100 = complete kill) at 125 g/ha ([7]; Zea mays, pre-emergence, 312 h, 125 g ai/ha, scale 0 (no effect) to 100 (complete control), visual, 12 to 14 days): 10% | Corn plant response rating (crop injury, 0 = no effect, 100 = complete kill) at 250 g/ha ([7]; Zea mays, pre-emergence, 312 h, 250 g ai/ha, scale 0 to 100 (0 no effect, 100 complete control), visual, 12 to 14 days): 20%
